From publication PMC11003488 (Journal of Enzyme Inhibition and Medicinal Chemistry, 2023)

Legend:
HL-60(TB) = assay: cells; format: cell-based; settings: Homo sapiens; for GI50: HL-60; for inhibition at 10 µM: HL-60, read-out: percent growth inhibition
RPMI-8226 = assay: NCI-60 SRB growth inhibition, one-dose and five-dose; format: cell-based; settings: Homo sapiens; for GI50: RPMI-8226; for inhibition at 10 µM: RPMI-8226, read-out: percent growth inhibition
HOP-62 = assay: as above; format: cell-based; settings: Homo sapiens; for GI50: HOP-62; for inhibition at 10 µM: HOP-62, read-out: percent growth inhibition
NCI-H226 = assay: as above; format: cell-based; settings: Homo sapiens; for GI50: NCI-H226; for inhibition at 10 µM: NCI-H226, read-out: percent growth inhibition
HCC-2998 = assay: as above; format: cell-based; settings: Homo sapiens; for GI50: HCC 2998; for inhibition at 10 µM: HCC 2998, read-out: percent growth inhibition
HCT-116 = assay: as above; format: cell-based; settings: Homo sapiens; for GI50: HCT-116, HCT-116, five-dose screening; for inhibition at 10 µM: HCT-116, read-out: percent growth inhibition
KM12 = assay: as above; format: cell-based; settings: Homo sapiens; for GI50: KM12; for inhibition at 10 µM: KM12, read-out: percent growth inhibition
SF-539 = assay: as above; format: cell-based; settings: Homo sapiens; for GI50: SF-539; for inhibition at 10 µM: SF-539, read-out: percent growth inhibition
MDA-MB-435 = assay: as above; format: cell-based; settings: Homo sapiens; for GI50: MDA-MB-435; for inhibition at 10 µM: MDA-MB-435, read-out: percent growth inhibition
UACC-62 = assay: as above; format: cell-based; settings: Homo sapiens; for GI50: UACC-62; for inhibition at 10 µM: UACC-62, read-out: percent growth inhibition
IGROV1 = assay: as above; format: cell-based; settings: Homo sapiens; for GI50: IGROV-1; for inhibition at 10 µM: IGROV-1, read-out: percent growth inhibition
OVCAR-8 = assay: as above; format: cell-based; settings: Homo sapiens; for inhibition at 10 µM: OVCAR-8, read-out: percent growth inhibition
ACHN = assay: as above; format: cell-based; settings: Homo sapiens; for inhibition at 10 µM: read-out: percent growth inhibition
SN12C = assay: as above; format: cell-based; settings: Homo sapiens; for inhibition at 10 µM: read-out: percent growth inhibition
TK-10 = assay: as above; format: cell-based; settings: Homo sapiens; for GI50: TK-10; for inhibition at 10 µM: TK-10, read-out: percent growth inhibition
UO-31 = assay: as above; format: cell-based; settings: Homo sapiens, UO-31
PC-3 = assay: as above; format: cell-based; settings: Homo sapiens; for GI50: PC-3; for inhibition at 10 µM: PC-3, read-out: percent growth inhibition
MDA-MB-231/ATCC = assay: as above; format: cell-based; settings: Homo sapiens, MDA-MB-231
HS 578 T = assay: as above; format: cell-based; settings: Homo sapiens; for inhibition at 10 µM: read-out: percent growth inhibition
Leukaemia cell lines = assay: NCI-60 SRB growth inhibition, subpanel; format: cell-based, human; settings: Homo sapiens, read-out: GI50 MG-MID
NSCLC cell lines = assay: NCI-60 SRB growth inhibition, subpanel; format: cell-based, human; settings: Homo sapiens, read-out: GI50 MG-MID
Colon cancer cell lines = assay: NCI-60 SRB growth inhibition, subpanel; format: cell-based, human; settings: Homo sapiens, read-out: GI50 MG-MID
CNS cancer cell lines = assay: NCI-60 SRB growth inhibition, subpanel; format: cell-based, human; settings: Homo sapiens, read-out: GI50 MG-MID
Melanoma cell lines = assay: NCI-60 SRB growth inhibition, subpanel; format: cell-based, human; settings: Homo sapiens, read-out: GI50 MG-MID
[1] = tested on: Ovarian cancer cell lines; assay: NCI-60 SRB growth inhibition, subpanel; format: cell-based, human; settings: Homo sapiens, read-out: GI50 MG-MID
Renal cancer cell lines = assay: NCI-60 SRB growth inhibition, subpanel; format: cell-based, human; settings: Homo sapiens, read-out: GI50 MG-MID
[2] = tested on: Prostate cancer cell lines; assay: NCI-60 SRB growth inhibition, subpanel; format: cell-based, human; settings: Homo sapiens, read-out: GI50 MG-MID
Breast cancer cell lines = assay: NCI-60 SRB growth inhibition, subpanel; format: cell-based, human; settings: Homo sapiens, read-out: GI50 MG-MID
[3] = Cytotoxicity towards normal fibroblasts, safety index; format: cell-based, human; settings: human, WI-38 normal fibroblast cells
[4] = tested on: WI-38 normal human fibroblast cells; assay: as above; format: cell-based; settings: WI-38 versus cancer cell lines
Human VEGFR-2 = Human VEGFR-2 (Homo sapiens, UniProt P35968); assay: VEGFR-2 inhibition assay; format: biochemical
Human VEGFR-2, sequence (P35968 20-1356): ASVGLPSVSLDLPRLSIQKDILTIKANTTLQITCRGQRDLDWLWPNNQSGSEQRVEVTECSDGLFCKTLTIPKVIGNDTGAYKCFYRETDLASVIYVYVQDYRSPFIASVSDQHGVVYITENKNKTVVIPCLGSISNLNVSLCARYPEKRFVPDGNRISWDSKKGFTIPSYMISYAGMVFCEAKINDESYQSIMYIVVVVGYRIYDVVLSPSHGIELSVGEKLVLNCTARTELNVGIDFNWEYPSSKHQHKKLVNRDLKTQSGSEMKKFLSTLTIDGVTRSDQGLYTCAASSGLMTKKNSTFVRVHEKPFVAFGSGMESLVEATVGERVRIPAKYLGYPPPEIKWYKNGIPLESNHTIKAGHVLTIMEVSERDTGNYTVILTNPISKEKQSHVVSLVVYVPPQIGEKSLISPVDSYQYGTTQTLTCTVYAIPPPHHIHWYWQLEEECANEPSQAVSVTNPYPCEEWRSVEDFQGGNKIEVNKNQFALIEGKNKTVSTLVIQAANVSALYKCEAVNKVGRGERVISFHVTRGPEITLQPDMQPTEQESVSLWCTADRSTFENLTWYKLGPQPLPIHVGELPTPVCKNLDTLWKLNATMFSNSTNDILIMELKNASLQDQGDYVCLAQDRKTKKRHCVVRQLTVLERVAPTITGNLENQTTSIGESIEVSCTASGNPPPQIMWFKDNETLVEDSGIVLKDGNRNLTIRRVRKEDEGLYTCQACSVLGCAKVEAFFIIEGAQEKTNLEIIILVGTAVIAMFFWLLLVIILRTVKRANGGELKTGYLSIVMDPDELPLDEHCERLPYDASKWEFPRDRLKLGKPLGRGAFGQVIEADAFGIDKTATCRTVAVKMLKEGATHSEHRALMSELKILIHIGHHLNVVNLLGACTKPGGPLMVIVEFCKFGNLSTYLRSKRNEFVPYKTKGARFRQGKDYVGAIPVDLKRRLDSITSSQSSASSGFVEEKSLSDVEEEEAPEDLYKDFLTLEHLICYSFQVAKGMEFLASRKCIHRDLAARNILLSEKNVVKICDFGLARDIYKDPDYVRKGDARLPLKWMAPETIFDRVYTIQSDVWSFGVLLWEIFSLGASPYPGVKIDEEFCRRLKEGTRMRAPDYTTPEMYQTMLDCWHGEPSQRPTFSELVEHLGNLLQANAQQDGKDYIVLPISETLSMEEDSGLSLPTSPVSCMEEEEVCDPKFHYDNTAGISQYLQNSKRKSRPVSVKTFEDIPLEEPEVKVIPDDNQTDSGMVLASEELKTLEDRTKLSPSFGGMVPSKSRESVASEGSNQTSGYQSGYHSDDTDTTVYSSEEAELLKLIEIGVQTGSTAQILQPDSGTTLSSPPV

## CC(=O)Nc1ccc(/C=C/C(=O)c2cccc(NCc3csc4ccccc34)c2)cc1 [Compound 5i, (E)-N-(4–(3-(3-((benzo[b]thiophen-3-ylmethyl)amino)phenyl)-3-oxoprop-1-en-1-yl)phenyl) acetamide]
HL-60(TB)
  GI50: 3.53 µM
  inhibition at 10 µM: 123%
RPMI-8226
  GI50: 2.56 µM
  inhibition at 10 µM: 121%
HOP-62
  GI50: 11.2 µM
  inhibition at 10 µM: 73.8%
NCI-H226
  GI50: 7.73 µM
  inhibition at 10 µM: 91.9%
HCC-2998
  GI50: 12.4 µM
  inhibition at 10 µM: 56%
HCT-116
  GI50: 2.02 µM
  inhibition at 10 µM: 180%
KM12
  GI50: 5.12 µM
  inhibition at 10 µM: 129%
SF-539
  GI50: 2.74 µM
  inhibition at 10 µM: 171%
MDA-MB-435
  GI50: 4.37 µM
  inhibition at 10 µM: 49.2%
UACC-62
  GI50: 6.44 µM
  inhibition at 10 µM: 76.7%
IGROV1
  GI50: 4.18 µM
  inhibition at 10 µM: 56.9%
OVCAR-8
  inhibition at 10 µM: 131%
ACHN
  GI50: 7.35 µM
  inhibition at 10 µM: 51.4%
SN12C
  GI50: 3.29 µM
  inhibition at 10 µM: 93.3%
TK-10
  GI50: 17.6 µM
  inhibition at 10 µM: 23.9%
UO-31
  GI50: 5.16 µM
PC-3
  GI50: 4.57 µM
  inhibition at 10 µM: 70.8%
MDA-MB-231/ATCC
  GI50: 3.42 µM
HS 578 T
  GI50: 4.49 µM
  inhibition at 10 µM: 68.5%
Leukaemia cell lines
  GI50: 2.93 µM
NSCLC cell lines
  GI50: 11.2 µM
Colon cancer cell lines
  GI50: 6.66 µM
CNS cancer cell lines
  GI50: 6.12 µM
Melanoma cell lines
  GI50: 8.14 µM
[1]
  GI50: 8.28 µM
Renal cancer cell lines
  GI50: 11.3 µM
[2]
  GI50: 5.01 µM
Breast cancer cell lines
  GI50: 3.79 µM
[3]
  GI50 at 48 h: > 100 µM
[4]
  Safety index: >1
Human VEGFR-2
  IC50: 0.66 ± 0.018 µM

## CC(=O)Nc1ccc(/C=C/C(=O)c2cccc(NCc3ccc(CO)cc3)c2)cc1 [Compound 5j, (E)-N-(4–(3-(3-((4-(hydroxymethyl)benzyl)amino)phenyl)-3-oxoprop-1-en-1-yl)phenyl) acetamide]
HL-60(TB)
  GI50: 11.6 µM
  inhibition at 10 µM: 138%
RPMI-8226
  GI50: 2.84 µM
  inhibition at 10 µM: 134%
HOP-62
  GI50: 18.9 µM
  inhibition at 10 µM: 93.7%
NCI-H226
  GI50: 13.7 µM
  inhibition at 10 µM: 138%
HCC-2998
  GI50: 13.2 µM
  inhibition at 10 µM: 199%
HCT-116
  GI50: 3.35 µM
  inhibition at 10 µM: 193%
KM12
  GI50: 3.93 µM
  inhibition at 10 µM: 158%
SF-539
  GI50: 7.37 µM
  inhibition at 10 µM: 181%
MDA-MB-435
  GI50: 13.8 µM
  inhibition at 10 µM: 79.8%
UACC-62
  GI50: 10.8 µM
  inhibition at 10 µM: 156%
IGROV1
  GI50: 6.71 µM
  inhibition at 10 µM: 119%
OVCAR-8; OVCAR-8
  GI50: 14.8 µM
OVCAR-8
  inhibition at 10 µM: 130%
ACHN
  GI50: 10.3 µM
  inhibition at 10 µM: 155%
SN12C
  inhibition at 10 µM: 149%
TK-10
  GI50: 16.1 µM
  inhibition at 10 µM: 95.1%
UO-31
  GI50: 10.7 µM
PC-3
  GI50: 12.3 µM
  inhibition at 10 µM: 81.8%
MDA-MB-231/ATCC
  GI50: 6.79 µM
HS 578 T
  GI50: 18.9 µM
  inhibition at 10 µM: 57.9%
Leukaemia cell lines
  GI50: 5.36 µM
NSCLC cell lines
  GI50: 13.9 µM
Colon cancer cell lines
  GI50: 7.35 µM
CNS cancer cell lines
  GI50: 10.1 µM
Melanoma cell lines
  GI50: 11.5 µM
[1]
  GI50: 12.4 µM
Renal cancer cell lines
  GI50: 13.3 µM
[2]
  GI50: 8.67 µM
Breast cancer cell lines
  GI50: 10.1 µM
[3]
  GI50 at 48 h: > 100 µM
[4]
  Safety index: >1
Human VEGFR-2
  IC50: 0.82 ± 0.016 µM
